Assay results published in patent US11284835B2, “Method for assessing pain caused by administration of drug solution, and method for selecting drug solution administration” (TERUMO KABUSHIKI KAISHA, priority 2016, dated 2022).

Tests used:
human = conditions: cited from earlier work
rat = assay: Electromyogram (EMG) of the myoelectric response caused by drug solution administration into the plantar subcutaneous of anesthetized rats; type: in vivo
Description: In the embodiment illustrated in FIG. 1, a subject (experimental animal) used for assessment of pain caused by administration of a drug solution is a rat 12. Conditions of the rat 12 that can be used are, for example, an age in range of 7 to 10 weeks old, a body weight in a range of 200 to 400 g, and a strain that is SD (other strains are also possible). An acclimation and quarantine period of the rat 12 is preferably five days or longer. An anesthesia mask 13 is attached to the rat 12, and inhalation anesthesia is performed.
In order to measure the pain caused by the administration of the drug solution, a myoelectric potential of the semitendinosus muscle 12b of the thigh of the rat 12 is recorded. At the time of recording the myoelectric potential, a needle-shaped measurement electrode 24 (for example, a bipolar hook electrode) is punctured under the semitendinosus muscle 12b to be placed, and a reference electrode 26 is pasted to a thoracic skin surface 12c. Potential signals from the measurement electrode 24 and the reference electrode 26 are amplified by a high-sensitivity bioelectric amplifier 28 and transmitted to a data collection device 30.
A rat 12 serving as a subject is prepared (a preparation step), and the rat 12 is subjected to inhalation anesthesia (an anesthesia step). Examples of an applicable inhalation anesthetic include isoflurane. […] Incidentally, it is preferable to heat the rat 12 with a warming mat to keep the body temperature constant during the anesthesia.
Next, the measurement electrode 24 is placed in the semitendinosus muscle 12b of the anesthetized rat 12 (a measurement electrode placement step). […] At this time, the thigh skin at a position where contraction has been recognized is incised by about 1 cm to expose the semitendinosus muscle 12b, and then, the measurement electrode 24 is inserted.
Thereafter, the anesthetic depth is kept constant. […]
Once such a myoelectric potential waveform is obtained, the measurement step is performed in order to assess (quantify) the pain caused by the drug solution administration. […]

[Cl-].[Na+] [NaCl]
magnitude of pain (VAS) over time (human; 5% NaCl injected (FIG. 6A)): great pain | magnitude of pain (EMG intensity) (rat; 10% NaCl, plurality of different administration rates (FIG. 9B)): varies depending on a difference in the administration rate | pain (EMG intensity obtained from myoelectric response) (rat; NaCl concentration 5% or more (FIG. 6B)): significantly increases

N[C@@H](CCC(=O)O)C(=O)O [glutamic acid]
magnitude of pain (VAS) (human; plurality of different molar concentrations (FIG. 7A, created from source graph)): the pain increases as the molar concentration of glutamic acid increases | pain (EMG intensity obtained from myoelectric response) (rat; plurality of different molar concentrations (FIG. 7B)): the pain increases as the molar concentration of glutamic acid increases
